This passage reports IC50 results from article PMC6274554, “Synthetic Strategy and Anti-Tumor Activities of Macrocyclic Scaffolds Based on 4-Hydroxyproline” (Molecules, 2016).

Common to all, as to type: cell-based, human
In assay [1] the test system is hepatocarcinoma cell line Hep G2. Nature of the assay: MTT cytotoxicity assay, Hep G2. To be noted: Homo sapiens, HepG2, Hep G2 cells, 8000 cells/well, 24 h incubation with compound, absorbance 490 nm, read-out: IC50 (μmol/L) Hep G2. The text has this: (§1) A small library derived from 6a–b, 9 and 10a–c was obtained by hydrolysis of the macrocycles and condensation with amines. The anti-tumor activities for lung cancer cell line A549, breast cancer cell line MDA-MB-231 and hepatocarcinoma cell line Hep G2 of all these new compounds were screened in vitro by an MTT assay. Most of the compounds show some inhibitory activities against A549, MDA-MB-231 and Hep G2. […] In the future, further structure–activity relationship studies will be performed to determine how the substituents affected the anti-tumor activity and to design the best chemical structure in the future.
(§2) The human lung cancer cell line A549, breast cancer cell line MDA-MB-231 and hepatocarcinoma cell line Hep G2 were cultured in Dulbecco’s modified Eagle’s medium (DMEM) supplemented with antibiotics (penicillin 50 U/mL; streptomycin 50 µg/mL) and 10% FCS. The incubation was at 37 °C in a humidified atmosphere of 5% CO2 in air before experiments. Cells were first seeded at a density of 8000 cells/well in a 96-well plate for 48 hours. Solutions containing respective concentrations of compounds were added into wells and incubation continued for another 24 hours. After that, the MTT (3-(4,5-dimethylthiazol-2-yl)-2,5-diphenyltetrazolium bromide) dye stock solution (10 μL, 5 mg/mL) was added to each well. After 4 h, the supernatant was removed and DMSO (100 μL) was added to solubilize the MTT. The absorbance was measured at a wave length of 490 nm (A490nm) on an ELISA microplate reader. Results were expressed as IC50 values.

Assay [2] has as its system lung cancer cell line A549. Nature of the assay: MTT cytotoxicity assay, A549. The conditions noted are these: Homo sapiens, A549 cells, 8000 cells/well, 24 h incubation with compound, absorbance 490 nm, read-out: IC50 (μmol/L) A549.
From the text: as §1, §2
(Tetrazolium assays rely on reduction of a dye to a coloured formazan, in cell work by metabolically active cells.)

Assay [3] concerns breast cancer cell line MDA-MB-231. The assay can be described thus: MTT cytotoxicity assay, MDA-MB-231. The conditions noted are these: Homo sapiens, MDA-MB-231 cells, 8000 cells/well, 24 h incubation with compound, absorbance 490 nm, read-out: IC50 (μmol/L) MDA-MB-231.
From the text: as §1, §2

`CC(C)CNC(=O)[C@@H]1C[C@@H]2CN1C(=O)c1cccc(c1)OCCn1nncc1CO2` [Compound 29, (12R,14S)-16-Oxo-N-isobutyl-2,11-dioxa-5,6,7,15-tetraaza-tetracyclo[15.3.1.1^12,15.0^5,9]docosane-6,8,1(21),17,19-pentaene-14-carboxamide]: the IC50 is 37.3 µmol/L in assay [1], 32.2 µmol/L in assay [2] and 43.2 µmol/L in assay [3].

With `O=C(O)[C@@H]1C[C@@H]2CN1C(=O)c1cccc(c1)OCCn1nncc1CO2` [Compound 26, (12R,14S)-16-Oxo-2,11-dioxa-5,6,7,15-tetraaza-tetracyclo[15.3.1.1^12,15.0^5,9]docosane-6,8,1(21),17,19-pentaene-14-carboxylic acid], the IC50 in assay [1] was determined as 44.9 µmol/L; in assay [2] it was 37.1 µmol/L; in assay [3] it was 34.3 µmol/L.

In the case of `CC(C)CNC(=O)[C@@H]1C[C@@H]2CN1C(=O)c1cccc(c1)OCCCCO2` [Compound 37, (8R,10S)-12-Oxo-N-isobutyl-2,7-dioxa-11-aza-tricyclo[11.3.1.1^8,11]octadecane-1(17),13,15-triene-10-carboxamide], the figures for the IC50 in assay [1], in assay [2] and in assay [3] were 73.1 µmol/L, 77.9 µmol/L and 86.3 µmol/L, respectively.
